Assays:
COX-2 = assay: Western blot analysis of COX-2; type: cell-based; conditions: versus untreated control
Excerpt: (§1) The anti-inflammatory activities of compounds HI and HL were further confirmed by Western blotting analysis of COX-1/COX-2.
(§2) For validating the anti-inflammatory pathway at the protein expression level, we used the immunoblotting (Western blot) technique.

[1] = tested on: Human Dermal Fibroblast (HDF) cell line; assay: Cell viability using MTT assay; type: cell-based; conditions: 24 h, 0.1-100 µM, read-out: IC50 against fibroblast cells
Procedure: The synthesized compounds were screened for their cytotoxic activities against fibroblast cell lines at different concentrations for 24 h using MTT assay. […] Human Dermal Fibroblast (HDF) cell line was bought from the American Type Culture Collection (ATCC; Minnesota, USAHB-8065). It was cultured in Park Memorial Institute (RPMI-1640) culture media with glutamine 2 mM (bio west, Nampa, cat. no. L0498-500), 10% fetal bovine serum (PAA, Pasching Austria, cat. no. A11-151) and penicillin with streptomycin 1% (Lonza, Verviers, Belgium, cat. no. DE17-602E). The HDF cells were grown in 50 cm^2 flask (Greinerbio-one GmbH Maybach-str. 272636 Frickenhausen, Germany) and preserved in a typical humidified incubator supplied with 5% CO2, 95% air at 37 °C (New Brunswick Scientific-Innova co-170). Cells were washed with cold phosphate-buffered saline, trypsinized, harvested and centrifuged to form cell pellets. The cultured HDFa were plated in 96 well microplates at a concentration of 5 × 10^4 cells per well 24 h before the MTT assay to allow microplate adherence. MTT Reagent was provided, prepared for use, and acquired from Biospes, China, Cat n#BAR1005-1. According to the manufacturer protocol, the cultured cells were presented with different concentrations of the assessed agents. 20 μL of MTT solution was filled with each well. For 4 h, the plate was kept at 37 °C. After incubation, 100 μL of formazan diluent buffer (Biospes, Chongqing, China, Cat n#BAR1005-1) was poured into each well. ELISA plate reader (Stat Fax 2200, Awareness Technologies, Palm City, FL, USA) measured color absorbance at 540 nm. Three readings were taken on three different days and averaged for each sample. At last, cell survival was determined according to the following equation: %cell survival=Asample/Acontrol×100% Acontrol is the absorbance of the cell culture after adding MTT and formazan buffer, but without treatment by any drug candidate. […] IC50 values were then calculated by curve-fitting involving non-linear regression. […]

human recombinant COX-2 = target: T1, human recombinant COX-2 (Homo sapiens, UniProt P35354); assay: In vitro COX-2 isozyme inhibition assay (EIA/ELISA kit, Cayman); conditions: for COX-2 SI (COX-1 IC50/COX-2 IC50): selectivity index
T1 sequence (P35354 18-604): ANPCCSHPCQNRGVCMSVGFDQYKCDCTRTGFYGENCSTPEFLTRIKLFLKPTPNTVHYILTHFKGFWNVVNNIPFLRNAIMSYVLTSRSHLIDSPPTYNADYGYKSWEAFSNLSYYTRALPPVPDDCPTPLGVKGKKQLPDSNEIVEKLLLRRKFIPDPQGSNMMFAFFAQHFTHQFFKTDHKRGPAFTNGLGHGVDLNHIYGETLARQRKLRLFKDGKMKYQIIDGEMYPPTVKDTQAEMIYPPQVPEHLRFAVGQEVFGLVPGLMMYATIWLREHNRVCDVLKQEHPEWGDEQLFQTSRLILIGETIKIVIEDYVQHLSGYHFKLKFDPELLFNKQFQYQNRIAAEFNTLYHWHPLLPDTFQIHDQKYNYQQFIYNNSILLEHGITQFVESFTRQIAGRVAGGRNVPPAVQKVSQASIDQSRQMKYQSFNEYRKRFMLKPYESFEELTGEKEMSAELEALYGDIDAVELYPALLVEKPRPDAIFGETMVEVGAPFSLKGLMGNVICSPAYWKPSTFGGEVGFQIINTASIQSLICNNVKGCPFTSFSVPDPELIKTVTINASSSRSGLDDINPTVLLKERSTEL

ovine COX-1 = target: T2, ovine COX-1 (Ovis aries, UniProt P05979); assay: In vitro COX-1 isozyme inhibition assay (EIA/ELISA kit, Cayman)
T2 sequence (P05979 25-600): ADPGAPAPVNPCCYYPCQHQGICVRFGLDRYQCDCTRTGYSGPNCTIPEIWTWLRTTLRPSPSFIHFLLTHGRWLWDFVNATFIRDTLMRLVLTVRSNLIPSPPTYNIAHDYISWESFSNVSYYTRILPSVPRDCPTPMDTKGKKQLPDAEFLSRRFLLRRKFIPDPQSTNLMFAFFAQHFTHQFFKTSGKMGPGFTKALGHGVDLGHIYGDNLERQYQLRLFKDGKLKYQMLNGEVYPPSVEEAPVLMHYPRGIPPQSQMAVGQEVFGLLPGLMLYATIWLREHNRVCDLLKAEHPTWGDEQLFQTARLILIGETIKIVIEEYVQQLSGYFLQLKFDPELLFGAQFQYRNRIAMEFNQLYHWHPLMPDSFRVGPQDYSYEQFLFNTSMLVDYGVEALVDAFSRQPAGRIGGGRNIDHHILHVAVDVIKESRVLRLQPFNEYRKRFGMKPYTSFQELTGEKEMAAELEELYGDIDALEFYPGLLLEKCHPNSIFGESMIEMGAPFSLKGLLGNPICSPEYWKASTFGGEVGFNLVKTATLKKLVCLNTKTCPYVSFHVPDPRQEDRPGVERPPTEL

[2] = Solubility examined in various solvents; type: physicochemical; conditions: organic solvents
Excerpt: . H% = 7.46 (7.51); N% = 8.63 (8.55), calc. (found), respectively (Table 1).

COX-1 = assay: Western blot analysis of COX-1; type: cell-based; conditions: versus untreated control
Excerpt: as §1, §2

IC50 (human recombinant COX-2) [µM]	COX-2 SI (COX-1 IC50/COX-2 IC50) (human recombinant COX-2)	IC50 (ovine COX-1) [µM]	melting point [°C]	SMILES	COX-2 protein level by Western blot (COX-2)	IC50 [1] [µM]	Solubility in solvents [2]	COX-1 protein level by Western blot (COX-1)
4.9	1.8	8.6		CC(C)Cc1ccc(C(C)C(=O)NN=Cc2ccccc2O)cc1 (stereo not drawn) [HL]	downregulation	4.13	soluble in DMSO, DMF, ethanol, methanol, and acetonitrile	downregulation
4.3	1.7	7.5	85	CC(C)Cc1ccc(C(C)C(=O)NN)cc1 (stereo not drawn) [HI, 2-(4-Isobutylphenyl) Propane Hydrazide]	downregulation	3.9		downregulation
				CC(C)Cc1ccc(C(C)C(=O)O)cc1 (stereo not drawn) [Ibuprofen, reference compound]		30.6		

— article PMC9653649 (Molecules, 2022)
